Test results: ChEMBL document CHEMBL5375953, “Discovery of Biaryl Amide Derivatives as Potent, Selective, and Orally Bioavailable RORγt Agonists for Cancer Immunotherapy” (J Med Chem, 2023)
pEC50, pIC50: −log10 of the molar value.

What was measured:
[1] = Oral bioavailability in rat at 5 mg/kg administration measured after 24 hrs by LC-MS/MS analysis; assay type: ADME, organism-based; conditions: in vivo
[2] = Antitumor activity against mouse Lung adenocarcinoma cell line xenografted in C57BL/6 mouse assessed as tumor growth inhibition at 25 mg/kg,ip administrated on day 7 for 12 days relative to control; assay type: functional; conditions: 288 h, time 12 day, read-out: TGI
[3] = Half life in dog at 1 mg/kg,iv administration measured after 24 hrs by LC-MS/MS analysis; assay type: ADME, organism-based, Canis lupus familiaris; conditions: in vivo
[4] = system: B16-F10; assay: Antitumor activity against mouse B16-F10 cells xenografted in C57BL/6 mouse assessed as tumor growth inhibition at 25 mg/kg,ip administrated on day 7 for 8 days relative to control; assay type: functional; conditions: B16-F10, 192 h, time 8 day, read-out: TGI
[5] = Metabolic Stability in cynomolgus monkey liver microsome assessed as intrinsic clearance at […] measured upto 60 mins by HPLC-MS/MS analysis; assay type: ADME, Macaca fascicularis; conditions: microsomes, 1 h
[6] = Half life in CD-1 mouse at 5 mg/kg,po administration measured after 24 hrs by LC-MS/MS analysis; assay type: ADME, organism-based; conditions: in vivo
[7] = AUC(infinity) in rat at 1 mg/kg,iv administration measured after 24 hrs by LC-MS/MS analysis; assay type: ADME, organism-based; set-up: dose 1 mg/kg, time 24 hrs, route iv; conditions: in vivo
[8] = Metabolic Stability in human liver microsome assessed as microsomal intrinsic clearance at […] measured upto 60 mins by HPLC-MS/MS analysis; assay type: ADME; conditions: liver microsomes, read-out: CLH
[9] = AUC(infinity) in CD-1 mouse at 5 mg/kg,po administration measured after 24 hrs by LC-MS/MS analysis; assay type: ADME, organism-based; set-up: dose 5 mg/kg, time 24 hrs, route po; conditions: in vivo
[10] = AUC(infinity) in CD-1 mouse at 1 mg/kg,iv administration measured after 24 hrs by LC-MS/MS analysis; assay type: ADME, organism-based; set-up: time 24 hrs, dose 1 mg/kg, route iv; conditions: in vivo
[11] = target: Voltage-gated inwardly rectifying potassium channel KCNH2 (Homo sapiens, UniProt Q12809); assay: Inhibition of hERG potassium channel by patch clamp assay; assay type: toxicity
[12] = Antitumor activity against mouse Lung adenocarcinoma cell line xenografted in C57BL/6 mouse assessed as tumor growth inhibition at 50 mg/kg,ip administrated on day 7 for 12 days relative to control; assay type: functional; conditions: 288 h, time 12 day, read-out: TGI
[13] = Cmax in dog at 2 mg/kg,po administration measured after 24 hrs by LC-MS/MS analysis; assay type: ADME, organism-based, Canis lupus familiaris; set-up: dose 2 mg/kg, time 24 hrs, route po; conditions: in vivo
[14] = Antitumor activity against mouse Lung adenocarcinoma cell line xenografted in C57BL/6 mouse assessed as tumor growth inhibition at 100 mg/kg,po administrated on day 7 for 12 days relative to control; assay type: functional; conditions: 288 h, time 12 day, read-out: TGI
[15] = AUC(infinity) in dog at 1 mg/kg,iv administration measured after 24 hrs by LC-MS/MS analysis; assay type: ADME, organism-based, Canis lupus familiaris; set-up: time 24 hrs, dose 1 mg/kg, route iv; conditions: in vivo
[16] = Cmax in CD-1 mouse at 5 mg/kg,po administration measured after 24 hrs by LC-MS/MS analysis; assay type: ADME, organism-based; set-up: dose 5 mg/kg, time 24 hrs, route po; conditions: in vivo
[17] = target: T1, Nuclear receptor ROR-beta (Homo sapiens, UniProt Q92753); assay: Agonist activity at human Gal4-fused RORbeta expressed in HEK293T cells assessed as luciferase activity incubated for 16 to 20 hrs by Luciferase reporter gene assay; assay type: cell-based
T1 sequence (Q92753 whole entry): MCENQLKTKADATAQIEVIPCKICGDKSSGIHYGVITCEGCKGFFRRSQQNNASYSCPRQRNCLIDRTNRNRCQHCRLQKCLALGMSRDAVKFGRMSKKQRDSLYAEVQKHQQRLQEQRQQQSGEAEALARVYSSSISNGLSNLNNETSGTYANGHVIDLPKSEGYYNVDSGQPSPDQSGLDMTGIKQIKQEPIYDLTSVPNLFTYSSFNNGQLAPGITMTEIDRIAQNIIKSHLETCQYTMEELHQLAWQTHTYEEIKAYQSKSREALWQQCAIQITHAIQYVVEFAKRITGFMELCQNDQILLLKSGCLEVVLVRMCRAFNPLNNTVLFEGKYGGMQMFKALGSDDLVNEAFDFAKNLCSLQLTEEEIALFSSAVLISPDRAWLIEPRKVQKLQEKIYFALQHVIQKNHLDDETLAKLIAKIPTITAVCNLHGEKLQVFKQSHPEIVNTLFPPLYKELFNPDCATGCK

[18] = Half life in CD-1 mouse at 1 mg/kg,iv administration measured after 24 hrs by LC-MS/MS analysis; assay type: ADME, organism-based; conditions: in vivo

Voltage-gated inwardly rectifying potassium channel KCNH2, sequence (Q12809 whole entry): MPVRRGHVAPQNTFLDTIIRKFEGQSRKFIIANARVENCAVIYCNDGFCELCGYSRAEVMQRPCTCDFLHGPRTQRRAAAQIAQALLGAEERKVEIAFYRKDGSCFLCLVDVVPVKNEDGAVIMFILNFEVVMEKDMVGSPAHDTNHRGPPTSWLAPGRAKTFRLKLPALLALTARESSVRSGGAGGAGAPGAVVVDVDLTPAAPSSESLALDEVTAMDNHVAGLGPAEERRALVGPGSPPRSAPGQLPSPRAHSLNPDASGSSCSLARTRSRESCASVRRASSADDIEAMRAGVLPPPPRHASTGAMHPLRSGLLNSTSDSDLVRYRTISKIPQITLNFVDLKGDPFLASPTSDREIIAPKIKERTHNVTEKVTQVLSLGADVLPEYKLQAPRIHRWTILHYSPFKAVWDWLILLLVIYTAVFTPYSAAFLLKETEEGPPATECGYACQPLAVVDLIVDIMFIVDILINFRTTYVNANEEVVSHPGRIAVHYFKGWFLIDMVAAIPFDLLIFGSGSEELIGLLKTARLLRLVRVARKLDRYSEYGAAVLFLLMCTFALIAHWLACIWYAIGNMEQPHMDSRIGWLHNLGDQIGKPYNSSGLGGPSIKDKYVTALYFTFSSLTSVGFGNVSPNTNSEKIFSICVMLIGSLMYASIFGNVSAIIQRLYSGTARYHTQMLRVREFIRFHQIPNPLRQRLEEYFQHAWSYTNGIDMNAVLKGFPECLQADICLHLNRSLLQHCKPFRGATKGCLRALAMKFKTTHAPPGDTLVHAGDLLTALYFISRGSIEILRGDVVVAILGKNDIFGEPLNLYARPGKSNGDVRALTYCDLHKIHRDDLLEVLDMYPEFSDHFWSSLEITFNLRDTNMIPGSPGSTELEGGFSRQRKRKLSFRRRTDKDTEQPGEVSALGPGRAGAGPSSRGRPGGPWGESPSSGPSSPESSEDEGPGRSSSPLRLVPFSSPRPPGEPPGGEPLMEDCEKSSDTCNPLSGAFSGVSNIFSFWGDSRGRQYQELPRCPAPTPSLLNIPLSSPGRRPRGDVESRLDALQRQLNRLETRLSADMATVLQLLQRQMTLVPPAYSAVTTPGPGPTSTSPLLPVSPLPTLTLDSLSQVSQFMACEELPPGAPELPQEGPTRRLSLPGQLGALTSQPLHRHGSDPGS

Compound: CCS(=O)(=O)c1ccc(CC(=O)Nc2cc(Cl)c(-c3ccc(OC(C)C)c(C#N)c3)c(Cl)c2)cc1
- bioavailability [1]: 39.4%
- inhibition in vivo at 25 mg/kg [2]: 46.2%
- half-life [3]: 46.5 h
- inhibition in vivo at 25 mg/kg [4]: 51.6%
- CLH [5]: 60.2 µL/min/mg
- half-life [6]: 6 h
- AUC(0-inf) [7]: 5410 ng·h/mL
- microsomal CLint [8]: < 9.6 µL/min/mg
- AUC(0-inf) [9]: 20600 ng·h/mL
- AUC [10]: 4621.9 ng·h/mL
- pIC50 [11]: < 5.00
- inhibition in vivo at 50 mg/kg [12]: 75.6%
- Cmax [13]: 518 ng/mL
- inhibition in vivo at 100 mg/kg [14]: 49.8%
- AUC(0-inf) [15]: 27000 ng·h/mL
- Cmax [16]: 1810 ng/mL
- pEC50 [17]: < 5.00
- t1/2 [18]: 6.3 h
